Data reported in patent US10653701B2, “Substituted quinazolines for inhibiting kinase activity” (NeuPharma, Inc., priority 2013, dated 2020).
Blank lines part the entries; values can stand above or below the molecule they belong to.

Key:
FGFR1 = FGFR1 (Homo sapiens (Human), UniProt P11362); assay: Z'-LYTE kinase inhibition assay, FGFR1; type: biochemical; conditions: compound at 0.041 μM
Method: Inhibitory activities of compounds against BTK, EGFR and EGFR mutants (EGFR L858R, EGFR T790M, EGFR L858R/T790M), FGFR1, FGFR2, JAK2, JAK3 and KDR were measured by Invitrogen using Z′-LYTE® Method as briefly described in the following.
Test Compounds are screened in 1% DMSO (final) in the well. For 10 point titrations, 3-fold serial dilutions are conducted from the starting concentration. All ATP Solutions are diluted to a 4× working concentration in Kinase Buffer (50 mM HEPES pH 7.5, 0.01% BRIJ-35, 10 mM MgCl2, 1 mM EGTA). Peptide/Kinase Mixtures are diluted to a 2× working concentration in the appropriate Kinase Buffers as described below.
(v) Peptide/Kinase Mixtures for measurement of FGFR1:
The 2×FGFR1/Tyr 04 mixture is prepared in 50 mM HEPES pH 7.5, 0.01% BRIJ-35, 10 mM MgCl2, 4 mM MnCl2, 1 mM EGTA, 2 mM DTT. The final 10 μL Kinase Reaction consists of 0.41-3.5 ng FGFR1 and 2 μM Tyr 04 in 50 mM HEPES pH 7.5, 0.01% BRIJ-35, 10 mM MgCl2, 2 mM MnC12, 1 mM EGTA, 1 mM DTT. After the 1 hour Kinase Reaction incubation, 5 μL of a 1:64 dilution of Development Reagent B is added.
Reaction starts by 30-second shaking of mixture consisting of 2.5 μL 4× test compound, 5 μL 2× kinase reaction mixture and 2.5 μL 4×ATP Solution on Bar-coded Corning, low volume NBS, black 384-well plate (Corning Cat. #3676). […] Finally fluorescence is read by plate reader. […]

H1975 tumor xenograft = assay: Inhibition of tumor growth in H1975 tumor xenograft model; type: in vivo, BALB/c female nude mice; conditions: QD x 14
Method: H1975 cells were implanted in BALB/c female nude mice and grown as tumor xenografts. When tumors achieved 120-200 mm^3, mice were assigned into treatment and control groups using randomized block design based upon their tumor volumes. Each group contained 6 tumor-bearing mice. Tumors were measured twice weekly in two dimensions using a caliper, and the tumor volume was calculated from two-dimensional measurements using the equation V=0.5×a×b^2 where a and b are the long and short diameters of the tumor, respectively. Relative tumor volume (RTV) was defined as TVt/TVi, the ratio of the volume on a given day (TVt) and the volume at the start of treatment (TVi). Relative tumor growth rate (T/C) was defined as RTVT/RTVC, the ratio of relative tumor volume of treatment group (RTVT) and relative tumor volume of control group (RTVC) on a given day. Inhibition of tumor growth in a H1975 tumor xenograft model by some compounds is shown below in Table 6 and Table 7.

[1] = Table 6, 30 mg/kg, Intraperitoneal injection

Chain of FGFR1 (P11362 22-822): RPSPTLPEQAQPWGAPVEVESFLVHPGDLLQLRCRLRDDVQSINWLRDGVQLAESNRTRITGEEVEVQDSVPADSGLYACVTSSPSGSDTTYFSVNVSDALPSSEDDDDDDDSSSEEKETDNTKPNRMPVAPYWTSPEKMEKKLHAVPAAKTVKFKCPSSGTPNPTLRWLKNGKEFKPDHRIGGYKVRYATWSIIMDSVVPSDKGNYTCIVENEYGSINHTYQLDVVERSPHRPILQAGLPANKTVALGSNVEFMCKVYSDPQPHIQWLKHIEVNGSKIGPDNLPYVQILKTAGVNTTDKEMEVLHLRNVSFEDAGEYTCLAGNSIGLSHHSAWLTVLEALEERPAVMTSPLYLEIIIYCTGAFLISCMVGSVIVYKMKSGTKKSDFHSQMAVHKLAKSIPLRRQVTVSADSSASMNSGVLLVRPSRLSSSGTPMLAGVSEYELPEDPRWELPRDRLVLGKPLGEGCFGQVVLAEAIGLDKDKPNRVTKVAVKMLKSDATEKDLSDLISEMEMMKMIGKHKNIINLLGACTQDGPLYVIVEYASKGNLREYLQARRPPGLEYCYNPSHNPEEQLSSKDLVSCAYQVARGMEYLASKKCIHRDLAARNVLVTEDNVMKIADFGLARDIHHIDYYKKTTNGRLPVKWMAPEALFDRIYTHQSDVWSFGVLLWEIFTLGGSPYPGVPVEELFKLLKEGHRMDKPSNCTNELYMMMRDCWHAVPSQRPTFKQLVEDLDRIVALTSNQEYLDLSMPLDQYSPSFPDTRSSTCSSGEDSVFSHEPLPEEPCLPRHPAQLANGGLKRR

inhibition at 0.041 µM (FGFR1): > 50%
Structure (SMILES): C=CC(=O)Nc1cccc(-c2cccc3cnc(Nc4ccc(N5CCN(C(C)=O)CC5)cc4)nc23)c1 [Example C032, N-(3-(2-((4-(4-acetylpiperazin-1-yl)phenyl)amino)quinazolin-8-yl)phenyl)acrylamide]

Structure (SMILES): C=CC(=O)Nc1cccc(-c2cccc3cnc(Nc4ccc(N5CCN(CCO)CC5)cc4)nc23)c1 [Example C059, N-(3-(2-((4-(4-(2-hydroxyethyl)piperazin-1-yl)phenyl)amino)quinazolin-8-yl)phenyl)acrylamide]
T/C (H1975 tumor xenograft; Table 6, 60 mg/kg, Oral): 35.3%

Structure (SMILES): C=CC(=O)Nc1cccc(-c2cccc3cnc(Nc4ccc(N5CCN(CCO)CC5)cc4F)nc23)c1 [Example C147, N-(3-(2-((2-fluoro-4-(4-(2-hydroxyethyl)piperazin-1-yl)phenyl)amino)quinazolin-8-yl)phenyl)acrylamide]
T/C (H1975 tumor xenograft; Table 7, 60 mg/kg, Oral): 55.7%

Structure (SMILES): C=CC(=O)Nc1cccc(-c2cccc3cnc(Nc4ccc(OCCOC)cc4)nc23)c1 [Example C107, N-(3-(2-((4-(2-methoxyethoxy)phenyl)amino)quinazolin-8-yl)phenyl)acrylamide]
T/C (H1975 tumor xenograft; [1]): 63.6%

Structure (SMILES): C=CC(=O)Nc1cccc(-c2cccc3cnc(Nc4ccc(N5CCN(C)CC5)c(F)c4F)nc23)c1 [Example C156, N-(3-(2-((2,3-difluoro-4-(4-methylpiperazin-1-yl)phenyl)amino)quinazolin-8-yl)phenyl)acrylamide]
T/C (H1975 tumor xenograft; Table 7, 60 mg/kg, Oral): 36.8%

Structure (SMILES): C=CC(=O)Nc1cccc(-c2cccc3cnc(Nc4ccc(N5CCN(C)CC5)cc4)nc23)c1 [Example C021, N-(3-(2-((4-(4-methylpiperazin-1-yl)phenyl)amino)quinazolin-8-yl)phenyl)acrylamide]
T/C (H1975 tumor xenograft; Table 6, 60 mg/kg, Oral): 30.5%

Structure (SMILES): C=CC(=O)Nc1cccc(-c2cccc3cnc(Nc4ccc(N5CCN(C)CC5)nc4)nc23)c1 [Example C041, N-(3-(2-((6-(4-methylpiperazin-1-yl)pyridin-3-yl)amino)quinazolin-8-yl)phenyl)acrylamide]
T/C (H1975 tumor xenograft; [1]): 48.7%

Structure (SMILES): C=CC(=O)Nc1cccc(-c2cccc3cnc(Nc4ccc(N5CCN(CCO)CC5)c(F)c4F)nc23)c1 [Example C151, N-(3-(2-((2,3-difluoro-4-(4-(2-hydroxyethyl)piperazin-1-yl)phenyl)amino)quinazolin-8-yl)phenyl)acrylamide]
T/C (H1975 tumor xenograft; Table 7, 60 mg/kg, Oral): 28.6%

Structure (SMILES): C=CC(=O)Nc1cccc(-c2cccc3cnc(Nc4ccc(NC5CN(CCF)C5)cc4)nc23)c1 [Example C103, N-(3-(2-((4-((1-(2-fluoroethyl)azetidin-3-yl)amino)phenyl)amino)quinazolin-8-yl)phenyl)acrylamide]
T/C (H1975 tumor xenograft; [1]): 35.8%
